pIC50: −log10 of the molar value. Read-outs that look alike come from different tables or passages of the source.
Key:
[1] = molecular target: T1, L858R/T790M/C797S triple mutant EGFR (Homo sapiens, UniProt P00533, C797S/L858R/T790M); experiment: Enzymology experiment in vitro (HTRF/FRET kinase activity), L858R/T790M/C797S triple mutant EGFR; format: biochemical; conditions: HTRF KinEASE-TK; for pIC50: read-out: EGFR (L858R/T790M/C797S) IC50
T1 construct: purchased Signalchem
Summary of the method: (§1)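 Kinase reaction run 40 min at room temperature with peptide and ATP after a 10 min compound–enzyme preincubation. Phosphorylation read as HTRF signal after 1 h with Eu³⁺ antibody, XL665-streptavidin and EDTA (Cisbio KinEASE-TK).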

[2] = tested on: EGFR wild-type cell line A431; experiment: Cell proliferation inhibition experiment (CellTiter-Glo), A431; format: cell-based; conditions: A431 cells, Cell Titer-Glo, read-out: A431 EGFR WT IC50
Summary of the method: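 Luminescent CellTiter-Glo readout, 30 min at room temperature, after 72 h compound exposure at 37° C., 5% CO2 with 0.1% DMSO final. EGFR wild-type A431 cells were seeded at 800 per well and grown 24 h before dosing. IC50 derived from the dose-response.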

[3] = molecular target: Ba/F3 De119/T790M/C797S EGFR triple mutant cell line (Homo sapiens, UniProt P00533, T790M/C797S, cells depend on it, form not given); experiment: Cell proliferation inhibition experiment (CellTiter-Glo), Ba/F3 De119/T790M/C797S; format: cell-based; conditions: Ba/F3 Del19/T790M/C797S EGFR triple mutant cells, 72 hours, Cell Titer-Glo; read-out: Ba/F3 (Del19/T790M/C797S) IC50
wild-type EGFR = molecular target: T2, wild-type EGFR (Homo sapiens, UniProt P00533); experiment: Enzymology experiment in vitro (HTRF/FRET kinase activity), wild-type EGFR; format: biochemical; conditions: HTRF KinEASE-TK; for pIC50: read-out: EGFR (WT) IC50
T2 construct: purchased Signalchem
Summary of the method: as §1

[4] = molecular target: Ba/F3 L858R/T790M/C797S EGFR triple mutant cell line (Homo sapiens, UniProt P00533, T790M/C797S/L858R, cells depend on it); experiment: Cell proliferation inhibition experiment (CellTiter-Glo), Ba/F3 L858R/T790M/C797S; format: cell-based; conditions: 72 hours, Cell Titer-Glo, read-out: Ba/F3 (L858R/T790M/C797S) IC50
Ba/F3 L858R/T790M/C797S EGFR triple mutant cell line, sequence (P00533 whole entry T790M/C797S/L858R): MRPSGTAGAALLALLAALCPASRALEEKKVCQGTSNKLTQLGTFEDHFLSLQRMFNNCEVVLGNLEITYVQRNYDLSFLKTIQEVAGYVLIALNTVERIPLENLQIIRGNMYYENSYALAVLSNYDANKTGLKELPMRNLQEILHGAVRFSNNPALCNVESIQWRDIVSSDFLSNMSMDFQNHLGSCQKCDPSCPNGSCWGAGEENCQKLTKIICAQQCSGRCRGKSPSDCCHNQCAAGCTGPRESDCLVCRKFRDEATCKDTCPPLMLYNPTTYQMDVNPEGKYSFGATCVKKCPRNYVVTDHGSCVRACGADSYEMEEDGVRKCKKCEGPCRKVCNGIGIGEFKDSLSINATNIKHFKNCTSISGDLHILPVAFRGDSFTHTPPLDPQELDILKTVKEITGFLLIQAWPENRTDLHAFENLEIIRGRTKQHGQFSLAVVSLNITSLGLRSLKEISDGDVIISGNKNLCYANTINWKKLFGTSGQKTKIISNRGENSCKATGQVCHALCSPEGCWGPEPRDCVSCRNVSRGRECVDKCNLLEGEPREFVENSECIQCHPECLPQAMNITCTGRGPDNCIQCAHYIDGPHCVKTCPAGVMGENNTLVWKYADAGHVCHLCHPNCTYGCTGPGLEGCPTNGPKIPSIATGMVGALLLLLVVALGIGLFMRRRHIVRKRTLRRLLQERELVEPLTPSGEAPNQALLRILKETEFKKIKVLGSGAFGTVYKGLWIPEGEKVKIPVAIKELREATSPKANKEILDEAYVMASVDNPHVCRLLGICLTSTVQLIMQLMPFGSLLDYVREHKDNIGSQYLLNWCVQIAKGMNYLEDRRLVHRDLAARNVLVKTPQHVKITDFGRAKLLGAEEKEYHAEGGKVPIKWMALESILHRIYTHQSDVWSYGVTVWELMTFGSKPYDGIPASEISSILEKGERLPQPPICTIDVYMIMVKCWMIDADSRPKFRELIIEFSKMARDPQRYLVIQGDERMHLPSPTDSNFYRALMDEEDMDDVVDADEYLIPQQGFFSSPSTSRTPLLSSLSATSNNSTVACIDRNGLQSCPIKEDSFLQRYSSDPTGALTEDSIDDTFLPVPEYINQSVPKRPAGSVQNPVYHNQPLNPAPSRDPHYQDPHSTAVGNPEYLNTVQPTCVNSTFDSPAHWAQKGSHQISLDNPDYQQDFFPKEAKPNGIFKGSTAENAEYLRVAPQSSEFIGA

T1 sequence (P00533 25-1210 T790M/C797S/L858R): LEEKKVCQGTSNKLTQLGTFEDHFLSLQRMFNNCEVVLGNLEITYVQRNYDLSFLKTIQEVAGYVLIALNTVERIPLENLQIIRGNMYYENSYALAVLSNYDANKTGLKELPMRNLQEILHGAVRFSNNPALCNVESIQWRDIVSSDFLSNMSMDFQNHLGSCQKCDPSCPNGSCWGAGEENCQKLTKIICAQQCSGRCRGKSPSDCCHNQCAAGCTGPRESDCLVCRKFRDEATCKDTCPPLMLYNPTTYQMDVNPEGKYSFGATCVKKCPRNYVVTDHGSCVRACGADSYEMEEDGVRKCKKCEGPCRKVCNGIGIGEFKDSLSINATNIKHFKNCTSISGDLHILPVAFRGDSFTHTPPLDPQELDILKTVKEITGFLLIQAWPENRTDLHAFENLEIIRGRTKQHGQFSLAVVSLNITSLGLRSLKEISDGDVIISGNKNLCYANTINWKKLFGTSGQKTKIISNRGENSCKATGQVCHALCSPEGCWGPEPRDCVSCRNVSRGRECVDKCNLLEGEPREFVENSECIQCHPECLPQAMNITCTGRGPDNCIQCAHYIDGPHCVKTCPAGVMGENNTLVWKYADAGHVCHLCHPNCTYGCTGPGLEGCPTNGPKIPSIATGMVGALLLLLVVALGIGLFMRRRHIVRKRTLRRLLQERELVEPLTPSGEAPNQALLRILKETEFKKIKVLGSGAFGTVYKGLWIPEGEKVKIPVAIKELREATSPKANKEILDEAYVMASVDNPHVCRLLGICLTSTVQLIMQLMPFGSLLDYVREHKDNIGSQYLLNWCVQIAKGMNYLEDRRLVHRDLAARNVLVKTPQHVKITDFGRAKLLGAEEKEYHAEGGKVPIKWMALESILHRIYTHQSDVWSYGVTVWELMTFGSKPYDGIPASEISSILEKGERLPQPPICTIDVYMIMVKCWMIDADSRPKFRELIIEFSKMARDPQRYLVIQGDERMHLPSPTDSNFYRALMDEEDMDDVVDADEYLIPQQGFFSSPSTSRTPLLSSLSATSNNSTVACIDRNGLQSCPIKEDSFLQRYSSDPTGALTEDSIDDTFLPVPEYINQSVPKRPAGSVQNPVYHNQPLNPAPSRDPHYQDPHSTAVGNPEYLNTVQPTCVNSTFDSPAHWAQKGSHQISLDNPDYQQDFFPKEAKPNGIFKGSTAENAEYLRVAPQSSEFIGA
T2 sequence (P00533 25-1210): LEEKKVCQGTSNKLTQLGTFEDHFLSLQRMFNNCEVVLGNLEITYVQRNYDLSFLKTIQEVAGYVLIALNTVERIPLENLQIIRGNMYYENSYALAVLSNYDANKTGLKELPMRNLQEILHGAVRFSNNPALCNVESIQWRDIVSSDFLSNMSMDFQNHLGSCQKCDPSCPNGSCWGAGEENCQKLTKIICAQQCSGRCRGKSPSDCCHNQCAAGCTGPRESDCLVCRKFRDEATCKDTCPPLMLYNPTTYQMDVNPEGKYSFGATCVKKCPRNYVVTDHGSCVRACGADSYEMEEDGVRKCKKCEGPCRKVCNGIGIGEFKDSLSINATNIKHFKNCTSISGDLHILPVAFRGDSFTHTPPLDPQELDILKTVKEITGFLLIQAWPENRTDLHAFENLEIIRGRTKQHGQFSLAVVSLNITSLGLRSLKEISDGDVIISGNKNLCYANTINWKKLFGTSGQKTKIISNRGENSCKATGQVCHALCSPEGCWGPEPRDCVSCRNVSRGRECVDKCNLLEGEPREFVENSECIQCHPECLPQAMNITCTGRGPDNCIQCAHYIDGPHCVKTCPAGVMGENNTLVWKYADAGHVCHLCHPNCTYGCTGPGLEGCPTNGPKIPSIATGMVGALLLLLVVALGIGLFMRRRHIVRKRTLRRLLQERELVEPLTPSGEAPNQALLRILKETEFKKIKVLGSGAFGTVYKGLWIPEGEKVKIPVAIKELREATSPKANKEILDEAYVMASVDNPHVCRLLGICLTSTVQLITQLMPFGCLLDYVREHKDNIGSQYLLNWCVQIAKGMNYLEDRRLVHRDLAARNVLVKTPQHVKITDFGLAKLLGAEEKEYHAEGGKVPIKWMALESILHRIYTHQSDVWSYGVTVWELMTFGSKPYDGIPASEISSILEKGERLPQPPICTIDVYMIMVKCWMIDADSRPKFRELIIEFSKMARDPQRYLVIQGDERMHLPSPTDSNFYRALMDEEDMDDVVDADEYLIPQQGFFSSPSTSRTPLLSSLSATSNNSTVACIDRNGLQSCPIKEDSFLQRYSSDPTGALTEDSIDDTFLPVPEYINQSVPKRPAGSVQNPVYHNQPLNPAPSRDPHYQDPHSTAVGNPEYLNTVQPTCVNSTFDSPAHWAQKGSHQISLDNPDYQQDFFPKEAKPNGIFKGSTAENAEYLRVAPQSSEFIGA
Ba/F3 De119/T790M/C797S EGFR triple mutant cell line, sequence (P00533 with tags, fused parts or gaps DEL746-750/T790M/C797S, form open): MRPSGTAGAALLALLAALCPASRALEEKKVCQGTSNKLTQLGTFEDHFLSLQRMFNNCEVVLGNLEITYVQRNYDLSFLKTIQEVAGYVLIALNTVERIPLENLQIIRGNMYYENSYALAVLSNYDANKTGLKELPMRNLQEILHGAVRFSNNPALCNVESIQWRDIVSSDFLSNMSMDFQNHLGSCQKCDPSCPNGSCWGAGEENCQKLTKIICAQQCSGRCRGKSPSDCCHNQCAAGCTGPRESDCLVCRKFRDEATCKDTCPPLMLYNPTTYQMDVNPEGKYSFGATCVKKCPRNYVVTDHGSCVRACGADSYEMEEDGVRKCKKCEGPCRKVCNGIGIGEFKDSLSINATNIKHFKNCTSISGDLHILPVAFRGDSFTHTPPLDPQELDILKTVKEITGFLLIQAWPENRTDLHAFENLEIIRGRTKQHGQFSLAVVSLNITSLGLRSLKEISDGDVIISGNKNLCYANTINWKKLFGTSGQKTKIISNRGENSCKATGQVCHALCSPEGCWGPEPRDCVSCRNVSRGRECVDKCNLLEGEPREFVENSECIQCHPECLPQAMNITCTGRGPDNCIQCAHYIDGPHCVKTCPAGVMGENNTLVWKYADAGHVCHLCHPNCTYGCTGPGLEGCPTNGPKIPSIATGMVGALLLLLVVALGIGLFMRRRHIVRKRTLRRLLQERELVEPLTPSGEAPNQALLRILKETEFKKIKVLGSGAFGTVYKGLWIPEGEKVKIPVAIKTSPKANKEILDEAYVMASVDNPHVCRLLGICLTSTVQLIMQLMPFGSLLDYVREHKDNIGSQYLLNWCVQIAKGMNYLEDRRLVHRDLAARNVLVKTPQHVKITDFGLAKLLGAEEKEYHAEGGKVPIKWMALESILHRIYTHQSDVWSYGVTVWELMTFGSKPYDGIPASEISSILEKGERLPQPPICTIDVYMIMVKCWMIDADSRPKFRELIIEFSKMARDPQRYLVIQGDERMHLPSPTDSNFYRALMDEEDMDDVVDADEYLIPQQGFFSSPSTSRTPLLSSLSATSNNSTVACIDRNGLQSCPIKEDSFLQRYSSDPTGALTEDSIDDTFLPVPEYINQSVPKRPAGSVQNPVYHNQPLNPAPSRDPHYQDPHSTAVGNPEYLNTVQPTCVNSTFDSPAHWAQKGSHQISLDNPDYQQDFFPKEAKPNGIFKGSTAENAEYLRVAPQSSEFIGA

pIC50 [1]	pIC50 ([2]; Homo sapiens, A-431, 72 h)	GI50 [3] [nM]	pIC50 (wild-type EGFR)	GI50 [4] [nM]	pIC50 ([2]; 72 hours)	SMILES	IC50 ([1]; EGFR (L858R/T790M/C797S) IC50(nM)) [nM]	pIC50 ([2]; Homo sapiens, A-431, 72 hours)	IC50 (wild-type EGFR; EGFR (WT) IC50(nM)) [nM]
9.48	6.75	9.29	7.72	25.1	–	COc1cc(N2CCC(N3CCOCC3)CC2)c(-c2cnsc2)cc1Nc1ncc(Br)c(Nc2ccc3nccnc3c2P(C)(C)=O)n1 [compound 212]	–	–	–
9.44	6.86	1.47	8.73	4.87	–	COc1cc(N2CCC(N3CCOCC3)C(F)C2)c(-c2cnn(C)c2)cc1Nc1ncc(Br)c(Nc2ccc3nccnc3c2P(C)(C)=O)n1 (stereo not shown) [compound 214]	–	–	–
9.52	7.15	1.22	8.37	2.02	–	COc1cc(N2CCN(CCC(F)F)CC2)c(-c2cnn(C)c2)cc1Nc1ncc(Br)c(Nc2ccc3nccnc3c2P(C)(C)=O)n1 [compound 222, (6-((5-Bromo-2-((4-(4-(3,3-difluoropropyl)piperazin-1-yl)-2-methoxy-5-(1-methyl-1H-pyrazol-4-yl)phenyl)amino)pyrimidin-4-yl)amino)quinoxalin-5-yl)dimethylphosphine oxide]	–	–	–
8.71	6.43	3.54	7.97	11.3	–	COc1cc(N2CCC(OCC3CC3)CC2)c(-c2cnn(C)c2)cc1Nc1ncc(Br)c(Nc2ccc3ncccc3c2P(C)(C)=O)n1 [compound 225]	–	–	–
9.72	7.32	1.55	8.85	4.34	–	CCN1CCC2(CC1)CCN(c1cc(OC)c(Nc3ncc(Br)c(Nc4ccc5nccnc5c4P(C)(C)=O)n3)cc1-c1cnn(C)c1)CC2 [compound 226]	–	–	–
9.32	7.35	4.58	8.98	8.5	–	COc1cc(N2CCC3(CC2)CCN(C(C)C)CC3)c(-c2cnn(C)c2)cc1Nc1ncc(Br)c(Nc2ccc3nccnc3c2P(C)(C)=O)n1 [compound 228]	–	–	–
9.43	7.40	1.08	8.95	1.12	–	COc1cc(N2CCC3(CCN(CCF)CC3)CC2)c(-c2cnn(C)c2F)cc1Nc1ncc(Br)c(Nc2ccc3nccnc3c2P(C)(C)=O)n1 [compound 231]	–	–	–
9.57	–	8.53	7.98	24.8	7.05	COc1cc(N2CCN(CC3CC3)CC2)c(-c2cnn(C)c2)cc1Nc1ncc(Br)c(Nc2ccc3nccnc3c2P(C)(C)=O)n1 [compound 235]	–	–	–
9.28	6.89	1.26	8.28	3.05	–	COc1cc(N2CCN(CC3(C#N)CC3)CC2)c(-c2cnn(C)c2)cc1Nc1ncc(Br)c(Nc2ccc3nccnc3c2P(C)(C)=O)n1 [compound 237, 1-((4-(4-((5-Bromo-4-((5-(dimethylphosphoryl)quinoxalin-6-yl)amino)pyrimidin-2-yl)amino)-5-methoxy-2-(1-methyl-1H-pyrazol-4-yl)phenyl)piperazin-1-yl)methyl)cyclopropane-1-carbonitrile]	–	–	–
9.52	7.21	1.83	8.52	3.59	–	COc1cc(N2CCC3(CCN(CCF)CC3)CC2)c(-c2cnn(C)c2)cc1Nc1ncc(Br)c(Nc2ccc3ncccc3c2P(C)(C)=O)n1 [compound 238]	–	–	–
8.80	6.85	2.1	8.12	4.61	–	COc1cc(N2CCC(C)(OC)CC2)c(-c2cnn(C)c2)cc1Nc1ncc(Cl)c(Nc2ccc3nccnc3c2P(C)(C)=O)n1 [compound 239]	–	–	–
9.89	6.74	2.92	7.52	12.3	–	COc1cc(N2CCC(C)(OC)CC2)c(-c2c[nH]n(C)c2=O)cc1Nc1ncc(Br)c(Nc2ccc3nccnc3c2P(C)(C)=O)n1 [compound 241]	–	–	–

Further lines, the molecule ahead of its results:

SMILES	pIC50 [1]	pIC50 ([2]; Homo sapiens, A-431, 72 h)	GI50 [3] [nM]	pIC50 (wild-type EGFR)	GI50 [4] [nM]	pIC50 ([2]; 72 hours)	IC50 ([1]; EGFR (L858R/T790M/C797S) IC50(nM)) [nM]	pIC50 ([2]; Homo sapiens, A-431, 72 hours)	IC50 (wild-type EGFR; EGFR (WT) IC50(nM)) [nM]
COc1cc(N2CCC3(CCOCC3)CC2)c(-c2cnn(C)c2)cc1Nc1ncc(Br)c(Nc2ccc3nccnc3c2P(C)(C)=O)n1 [compound 215]	9.60	6.64	2.23	8.14	5.58	–	–	–	–
COc1cc(N2CCC(N(C)C)C(F)C2)c(-c2cnn(C)c2)cc1Nc1ncc(Br)c(Nc2ccc3nccnc3c2P(C)(C)=O)n1 (stereo not shown) [compound 216]	9.54	7.34	2.06	8.77	7.32	–	–	–	–
COc1cc(N2CCN(CC3COC3)CC2)c(-c2cnn(C)c2)cc1Nc1ncc(Br)c(Nc2ccc3nccnc3c2P(C)(C)=O)n1 [compound 219, (6-((5-Bromo-2-((2-methoxy-5-(1-methyl-1H-pyrazol-4-yl)-4-(4-(oxetan-3-ylmethyl)piperazin-1-yl)phenyl)amino)pyrimidin-4-yl)amino)quinoxalin-5-yl)dimethylphosphine oxide]	9.92	7.49	1.1	8.78	1.08	–	–	–	–
COc1cc(N2CCC3(CC2)CN(C(C)C)CC(C)(C)O3)c(-c2cnn(C)c2)cc1Nc1ncc(Br)c(Nc2ccc3nccnc3c2P(C)(C)=O)n1 [compound 224, (6-((5-Bromo-2-((4-(4-isopropyl-2,2-dimethyl-1-oxa-4,9-diazaspiro [5.5]undecane-9-yl)-2-methoxy-5-(1-methyl-1H-pyrazol-4-yl)phenyl)amino)pyrimidin-4-yl)amino)quinoxalin-5-yl)dimethylphosphine oxide]	8.37	6.47	8.88	7.97	13.2	–	–	–	–
COc1cc(N2CCC3CCN(CC4CC4)C3C2)c(-c2cnn(C)c2)cc1Nc1ncc(Br)c(Nc2ccc3nccnc3c2P(C)(C)=O)n1 (stereo not shown) [compound 227]	9.23	7.46	2.78	8.57	6.64	–	–	–	–
COc1cc(N2CCN(C3(C)CC3)CC2)c(-c2cnn(C)c2)cc1Nc1ncc(Br)c(Nc2ccc3nccnc3c2P(C)(C)=O)n1 [compound 229]	9.38	6.79	3.76	8.07	12.1	–	–	–	–
COc1cc(N2CCC3(CCN(CCF)CC3)CC2)c(-c2cnn(C)c2)cc1Nc1ncc(Br)c(Nc2ccccc2P(C)(C)=O)n1 [compound 230]	9.54	6.90	4.47	7.92	10.1	–	–	–	–
COCCN1CCN(C2CCN(c3cc(OC)c(Nc4ncc(Br)c(Nc5ccc6nccnc6c5P(C)(C)=S)n4)cc3-c3cnn(C)c3)CC2)CC1 [compound 232]	–	–	3.16	–	8.59	–	0.58	6.90	4.11
COc1cc(N2CCC3(CCN(CCF)CC3)CC2)c(-c2cnn(C)c2)cc1Nc1ncc(Cl)c(Nc2ccc3nccnc3c2P(C)(C)=O)n1 [compound 233]	9.59	7.10	1.74	8.60	3.54	–	–	–	–
COc1cc(N2CCN(CC3CC3)CC2)c(-c2cnn(C)c2)cc1Nc1ncc(Br)c(Nc2ccc3cncnc3c2P(C)(C)=O)n1 [compound 236]	9.68	7.04	5.45	7.96	12.7	–	–	–	–
COc1cc(N2CCC(C)(OC)CC2)c(-c2cnn(C)c2)cc1Nc1ncc(Br)c(Nc2ccccc2P(C)(C)=O)n1 [compound 240]	9.29	6.52	8.2	7.52	19.2	–	–	–	–

— patent US20230219986A1, “NOVEL AMINOPYRIMIDINE EGFR INHIBITOR” (QILU PHARMACEUTICAL CO., LTD., priority 2020, published 2023)
